The source made the active and inactive calls. No cut-off for these calls is given here.
Assays:
[1] = biological target: T1, Type-1 angiotensin II receptor (Homo sapiens, UniProt P30556); assay: Displacement of [125I]-Angiotensin II from Angiotensin II type-1 receptor in VSMC cells (unknown origin) assessed as inhibition constant by competition radioligand binding assay; type: cell-based
T1 sequence (P30556 whole entry): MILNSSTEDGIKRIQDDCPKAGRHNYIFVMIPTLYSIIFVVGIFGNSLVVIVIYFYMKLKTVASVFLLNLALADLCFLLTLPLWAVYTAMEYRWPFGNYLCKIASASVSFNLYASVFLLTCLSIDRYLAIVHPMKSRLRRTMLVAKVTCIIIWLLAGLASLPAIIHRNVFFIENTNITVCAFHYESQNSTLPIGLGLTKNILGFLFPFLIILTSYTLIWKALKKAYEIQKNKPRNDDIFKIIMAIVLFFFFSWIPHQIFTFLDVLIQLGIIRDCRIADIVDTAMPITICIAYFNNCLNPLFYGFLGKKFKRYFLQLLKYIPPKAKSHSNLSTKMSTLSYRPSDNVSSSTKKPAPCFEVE

[2] = biological target: T1, Type-1 angiotensin II receptor; assay: Displacement of [125I]-Angiotensin II from Angiotensin II type-1 receptor in VSMC cells (unknown origin) by competition radioligand binding assay; type: cell-based
Rattus norvegicus [3] = assay: Antihypertensive activity in spontaneously hypertensive rat assessed as decrease in blood pressure at 5 to 10 mg/kg, po; type: functional, organism-based; conditions: dose 5-10 mg/kg
Rattus norvegicus [4] = assay: Antihypertensive activity in spontaneously hypertensive rat assessed as decrease in maximal mean blood pressure at 10 mg/kg, po measured for 24 hrs; type: functional, organism-based
Rattus norvegicus [5] = assay: Antihypertensive activity in spontaneously hypertensive rat assessed as decrease in maximal mean blood pressure at 10 mg/kg, po; type: functional
[6] = MRT (0 to 72 hrs) in spontaneously hypertensive Wistar rat at 10 mg/kg, po; type: ADME, organism-based; conditions: in vivo
[7] = Tmax in spontaneously hypertensive Wistar rat at 10 mg/kg, po; type: ADME, organism-based; conditions: in vivo
[8] = AUC (0 to infinity) in spontaneously hypertensive Wistar rat at 10 mg/kg, po; type: ADME, organism-based; set-up: dose 10 mg/kg, route po; conditions: in vivo
[9] = Cmax in spontaneously hypertensive Wistar rat at 10 mg/kg, po; type: ADME, organism-based; set-up: dose 10 mg/kg, route po; conditions: in vivo
[10] = Half life in spontaneously hypertensive Wistar rat at 10 mg/kg, po; type: ADME, organism-based; conditions: in vivo
[11] = MRT (0 to infinity) in spontaneously hypertensive Wistar rat at 10 mg/kg, po; type: ADME, organism-based; conditions: in vivo
[12] = AUC (0 to 72 hrs) in spontaneously hypertensive Wistar rat at 10 mg/kg, po; type: ADME, organism-based; set-up: dose 10 mg/kg, route po; conditions: in vivo

SMILES	Ki [1] [µM]	IC50 [2] [µM]	Activity (Rattus norvegicus [3])	further results
CCCCc1c(C(=O)O)c2ccccc2n1S(C)(=O)=O	0.0286	0.0292	Active	–
CS(=O)(=O)n1c(-c2ccccc2)c(C(=O)O)c2ccccc21	0.0108	0.0113	Active	Activity (Rattus norvegicus [4]): Active; Activity (Rattus norvegicus [5]): 46.3 mmHg
O=C(O)c1c(-c2ccccc2)n(C(=O)c2ccccc2)c2ccccc12	0.011	0.0123	Active	MRT last [6]: 20.2 h; Tmax [7]: 2.7 h; AUC(0-inf) [8]: 260 ng·h/mL; Activity (Rattus norvegicus [4]): Active; Activity (Rattus norvegicus [5]): 48.6 mmHg; Cmax [9]: 18.1 ng/mL; half-life [10]: 19.9 h; MRT inf [11]: 30.3 h; AUC(0-t) [12]: 253 ng·h/mL
Cc1ccc(S(=O)(=O)n2c(COCc3ccccc3)c(C(=O)O)c3ccccc32)cc1	0.0217	0.0224	Active	–
O=C(O)c1c(COCc2ccccc2)n(C(=O)c2ccccc2)c2ccccc12	0.0314	0.0322	Active	–
CCCCc1c(C(=O)O)c2ccccc2n1C(=O)c1ccccc1	0.0219	0.0222	Active	–
CCCCc1nc(Cl)c(CO)n1Cc1ccc(-c2ccccc2-c2nnn[nH]2)cc1 [LOSARTAN]	–	–	–	Activity (Rattus norvegicus [5]): 42.5 mmHg
CS(=O)(=O)n1c(COCc2ccccc2)c(C(=O)O)c2ccccc21	0.0247	0.0255	Active	–
Cc1ccc(S(=O)(=O)n2c(CO)c(C(=O)O)c3ccccc32)cc1	0.0233	0.0242	Active	–
CS(=O)(=O)n1c(CO)c(C(=O)O)c2ccccc21	0.0263	0.0271	Active	–
O=C(O)c1c(CO)n(C(=O)c2ccccc2)c2ccccc12	0.0308	0.0311	Active	–
Cc1ccc(S(=O)(=O)n2c(-c3ccccc3)c(C(=O)O)c3ccccc32)cc1	0.0164	0.018	Active	–
CCCCc1c(C(=O)O)c2ccccc2n1S(=O)(=O)c1ccc(C)cc1	0.0273	0.0283	Active	–
